Measurements as given in PubChem BioAssay (NCI).
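Assay format: 96-well plates, 48-hour exposure. The concentration for full growth arrest is given as TGI.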 Where a SMILES comes first, the peptide text is derived from it. [ ]: non-standard residue; d: D form. The star is where a group is joined. NMeAc5c = CNC1(C(=O)O)CCCC1; Boc = CC(C)(C)OC(=O)*; OBn = c1ccc(CO*)cc1

Tests used:
Experiment in all cases: inhibition of tumour cell growth, NCI panel, 48 h
[1] = system: SK-MEL-28 melanoma
[2] = system: K-562 leukemia
[3] = system: IGROV1 ovarian
[4] = system: HCT-116 colon
[5] = system: BT-549 breast
[6] = system: NCI-H226 lung
[7] = system: CCRF-CEM leukemia
[8] = system: M14 melanoma
[9] = system: SNB-75 CNS
[10] = system: T-47D breast
[11] = system: LOX IMVI melanoma

SMILES	TGI [1]	TGI [2]	TGI [3]	TGI [4]	TGI [5]	TGI [6]	TGI [7]	TGI [8]	TGI [9]	TGI [10]	TGI [11]
COC(=O)c1cc(=O)nc2sc3cccc(C)c3n12	> 100 µM	> 100 µM	> 100 µM	> 100 µM	> 100 µM	> 100 µM	> 100 µM	> 100 µM	> 100 µM	> 100 µM	33.8 µM
O=c1c2cc([N+](=O)[O-])cnc2sn1-c1ccc([N+](=O)[O-])cc1	> 100 µM		> 100 µM	83.9 µM	93.9 µM	> 100 µM	82.2 µM	> 100 µM	> 100 µM	83.6 µM	49.4 µM
O=c1[nH]c(Nc2cccc(CC(F)(F)F)c2)nc2nc[nH]c12	> 100 µM		> 100 µM	> 100 µM	> 100 µM	> 100 µM	> 100 µM	> 100 µM	> 100 µM	> 100 µM	> 100 µM
CC1(C)OC(=O)N(c2ccccc2)C12C=Cc1cc([N+](=O)[O-])cc([N+](=O)[O-])c1O2 (stereo not drawn)	> 100 µM	> 100 µM	> 100 µM	> 100 µM	> 100 µM	> 100 µM	> 100 µM	> 100 µM	> 100 µM	> 100 µM	> 100 µM
N#Cc1c(-c2ccccc2)/c(=C\Nc2cccc(C(F)(F)F)c2)c(=O)n2c1nc1ccccc12	> 100 µM		> 100 µM	> 100 µM	> 100 µM	80.9 µM	> 100 µM	> 100 µM	> 100 µM	> 100 µM	> 100 µM
Cc1ccccc1C(=O)N1CCc2c([nH]c3ccccc23)C1	> 100 µM	62.5 µM	> 100 µM	33 µM	42.8 µM	65 µM	74 µM	45.4 µM	61.9 µM	71.8 µM	50.2 µM
COc1ccc(C2CC(c3c(O)ccc4ccccc34)=NN2C(C)=O)cc1OC (stereo not drawn)	> 100 µM	43.8 µM	> 100 µM	28.6 µM	43.9 µM	> 100 µM	36.6 µM	69.4 µM	> 100 µM	> 100 µM	
COC(=O)c1ccccc1CC1Cc2ccc3c(c2C1=O)CCCC3 (stereo not drawn)	> 100 µM	> 100 µM	> 100 µM	> 100 µM	> 100 µM	> 100 µM	> 86.5 µM	> 100 µM	> 100 µM	> 78.1 µM	> 87 µM
CC[C@@H]1CC[C@@H]2[C@H](CC[C@]3(C)[C@@H](OC(C)=O)CC[C@@H]23)[C@H]1COC(C)=O	> 100 µM	36.2 µM	> 100 µM	31.7 µM	87.9 µM	52.5 µM	41.2 µM	76.6 µM	> 100 µM	> 100 µM	31.5 µM
CCCN(C(=O)c1ccccc1)C(C#N)c1ccc(C(C#N)N(CCC)C(=O)c2ccccc2)cc1 (stereo not drawn)		> 100 µM	> 100 µM	> 100 µM	> 100 µM	65.3 µM	> 100 µM	> 100 µM	73.3 µM	85.7 µM	> 100 µM
CCCCCCc1cc2cc(-c3csc(CC#N)n3)c(=O)oc2cc1O	> 100 µM	> 100 µM	> 100 µM	> 100 µM	> 60.2 µM	> 71.1 µM	> 100 µM	> 100 µM	> 100 µM	> 100 µM	> 100 µM
COc1ccc(COCCOCc2nc(C#N)c(N)o2)cc1	> 100 µM	> 100 µM	> 100 µM	> 100 µM	> 100 µM	> 100 µM	> 100 µM	> 100 µM	> 100 µM	> 100 µM	> 100 µM
CCOC(=O)CSc1c(C(=O)OCC)c(=O)n(-c2ccccc2)c(=S)n1-c1ccccc1	> 100 µM	> 100 µM	> 100 µM	> 100 µM	> 100 µM	> 100 µM	> 100 µM	> 100 µM	> 100 µM	> 100 µM	> 100 µM
Nc1nc(SCCc2ccccc2)c2[nH]cnc2n1	> 100 µM	> 100 µM	> 100 µM	> 100 µM	> 100 µM	> 100 µM	> 100 µM	> 100 µM	> 100 µM	> 100 µM	> 100 µM
S=C1Nc2ccccc2SC1c1ccccc1 (stereo not drawn)	> 100 µM	> 100 µM	> 100 µM	> 100 µM	> 100 µM	> 100 µM	> 100 µM	> 100 µM	71.3 µM	> 100 µM	> 100 µM
CC1(C)N=[N+]([O-])C1(C)C	> 100 µM	> 100 µM	> 100 µM	> 100 µM	> 100 µM	> 100 µM	> 100 µM	> 100 µM	> 100 µM	> 100 µM	> 100 µM

SMILES	TGI [1]	TGI [2]	TGI [3]	TGI [4]	TGI [5]	TGI [6]	TGI [7]	TGI [8]	TGI [9]	TGI [10]	TGI [11]
Cc1ccc(N=NC(=Nc2ccccc2)c2ccc(N(CCC#N)CCC#N)cc2)cc1	> 100 µM	> 100 µM	57.1 µM	> 100 µM	47.3 µM	> 100 µM	> 100 µM	> 100 µM	> 100 µM	> 100 µM	
c1csc(-c2ccc(-c3cccc4nsnc34)s2)c1	> 100 µM	> 100 µM		> 100 µM	> 100 µM	> 100 µM	69.3 µM	> 100 µM	> 100 µM	> 100 µM	> 100 µM
CCCCCCCCCCCCCCNC(=O)CCC(NC(=O)c1ccc(N(C)Cc2cnc3nc(N)nc(N)c3n2)cc1)C(=O)NCCCCCCCCCCCCCC (stereo not drawn)	40.7 µM	> 100 µM	27.3 µM	> 100 µM	41.1 µM	> 100 µM	> 31.6 µM	> 40.4 µM	34.8 µM	38.5 µM	> 100 µM
C=CC1(C)CCC2C(=CCC3C2(C)CC(O)C(O)C3(C)COC2OC(C(=O)O)C(O)C(O)C2O)C1 (stereo not drawn) (tested in a mixture with another compound)	> 100 µM	> 100 µM	> 100 µM	> 100 µM	> 100 µM	> 100 µM	> 100 µM	> 100 µM	> 100 µM	> 100 µM	> 100 µM
COC(=O)C1SC(SC)=NC12c1ccccc1Nc1ccccc12 (stereo not drawn)	48.5 µM	> 100 µM	> 100 µM	> 100 µM	58.6 µM	> 100 µM	> 100 µM	40.1 µM	> 100 µM	> 100 µM	32.2 µM
C[C@@H](NC(=O)[C@@H]1C[C@]1(C)COC(=O)c1cc([N+](=O)[O-])cc([N+](=O)[O-])c1)c1cccc2ccccc12	> 100 µM	> 100 µM	> 100 µM	> 100 µM	> 100 µM	> 100 µM	> 100 µM	> 100 µM	> 100 µM	> 100 µM	> 100 µM
C#CCNC(CS)C(=O)O (stereo not drawn)	> 100 µM	> 100 µM	> 100 µM	> 100 µM	> 100 µM	> 100 µM	> 100 µM	> 100 µM	> 100 µM	> 100 µM	> 100 µM
NC(=O)NCCCC(NC(=O)OCCCCn1ccc(=O)[nH]c1=O)C(=O)O (stereo not drawn)	> 100 µM	> 100 µM	> 100 µM	> 100 µM	> 100 µM	> 100 µM	> 100 µM	> 100 µM	> 100 µM	> 100 µM	> 100 µM
COc1ccc2cc(NC(=O)N/N=C\c3ccc([N+](=O)[O-])cc3)ccc2c1	> 100 µM	> 100 µM	> 100 µM	> 100 µM	76.5 µM	> 100 µM	> 100 µM	> 100 µM	65.4 µM	> 100 µM	> 100 µM
[N-]=[N+]=NC[C@H]1OCO[C@H](CN=[N+]=[N-])[C@@H](OCCOCCCl)[C@@H]1OCCOCCCl	> 100 µM	> 100 µM	> 100 µM	> 100 µM	> 100 µM	> 100 µM	> 100 µM	> 100 µM	> 100 µM	> 100 µM	> 100 µM
CN(C(=O)C(Cc1ccccc1)NC(=O)OC(C)(C)C)C1(C(=O)NC(Cc2ccccc2)C(=O)OCc2ccccc2)CCCC1 (stereo not drawn) (Boc-Phe-[NMeAc5c]-Phe-OBn; configuration not given here)	> 100 µM	97 µM	> 100 µM	> 100 µM	> 100 µM	> 100 µM	> 100 µM	45.9 µM	> 100 µM	> 100 µM	> 100 µM
C=CCN1C[C@H](C)N([C@H](c2ccc(C(=O)NC(CC)CC)cc2)c2cccc(OC)c2)C[C@H]1C		> 100 µM	> 100 µM	> 100 µM	99.6 µM	> 100 µM	> 100 µM	34.4 µM	> 100 µM	> 100 µM	58.6 µM
CC(C)(C)N1CSC(=S)N(Cc2ccco2)C1	10.8 µM	13.3 µM	12.6 µM	16.7 µM	9.62 µM	41.4 µM	4.03 µM	11.8 µM	26.4 µM	46.4 µM	14.6 µM
CN1CCc2cc(N)cc3c2C1Cc1ccc(O)c(O)c1-3 (stereo not drawn)	> 100 µM	85.3 µM	> 100 µM	> 100 µM	> 100 µM	82.8 µM	37.2 µM	> 100 µM	> 100 µM	> 100 µM	35 µM
Nn1c(-c2ccccc2)nn(C(=O)c2ccccc2)c1=O	> 100 µM	> 100 µM	> 100 µM	> 100 µM	> 100 µM	> 100 µM	> 100 µM	> 100 µM	> 100 µM	> 100 µM	> 100 µM
COc1cc2nc3n(c(=O)c2cc1OC)-c1ccc([N+](=O)[O-])cc1C3=O	> 100 µM	> 100 µM	> 100 µM	> 100 µM	> 100 µM	> 100 µM		> 100 µM	> 100 µM	> 100 µM	> 100 µM
